According to patent US8338482B2, “Modulating notch1 signaling pathway for treating neuroendocrine tumors” (Wisconsin Alumni Research Foundation, priority 2007, dated 2012):

Experiments:
[1] = test system: BON human GI carcinoid cancer cells; experiment: Western blot analysis of GI carcinoid cells; assay type: cell-based
Description: Cell Culture BON human GI carcinoid cancer cells, kindly provided by Drs. B. Mark Evers and Courtney M. Townsend, Jr.
Total protein concentrations were quantified with a bicinchoninic acid assay kit (Pierce Biotechnology, Rockford, Ill., USA). Denatured cellular extracts were resolved by SDS-PAGE, transferred to nitrocellulose membranes (Schleicher and Schuell, Keene, N.H., USA), blocked in milk, and incubated with appropriate antibodies. The antibody dilutions were: 1:1,000 for Notch1 (Santa Cruz Biotechnology, Santa Cruz, Calif., USA), mammalian achaete-scute homolog 1 (ASCL1; BD Biosciences, San Diego, Calif., USA), chromogranin A (Zymed Laboratories, San Francisco, Calif., USA), and cyclin D1 (Cell Signaling Technology, Danvers, Mass., USA), 1:2,000 for p21 (Cell Signaling Technology) and p27 (Santa Cruz Biotechnology), and 1:10,000 for glyceraldehyde-3-phosphate dehydrogenase (G3PDH; Trevigen, Gaithersburg, Md., USA). Horseradish peroxidase conjugated goat anti-rabbit or goat anti-mouse secondary antibodies (Pierce Biotechnology) were used depending on the source of the primary antibody. For visualization of the protein signal, Immunstar (Bio-Rad Laboratories, Hercules, Calif., USA) or SuperSignal West Femto (Pierce Biotechnology) kits were used per the manufacturer's instructions.
Cell Culture BON human gastrointestinal (GI) carcinoid tumor cells, kindly provided by Drs. B. Mark Evers and Courtney M. Townsend, Jr.
Total protein concentrations were quantified with a bicinchoninic acid assay kit (Pierce Biotechnology, Rockford, Ill.). Denatured cellular extracts were resolved by SDS-PAGE, transferred onto nitrocellulose membranes (Schleicher and Schuell, Keene, N H), blocked in milk, and incubated with appropriate antibodies. The antibody dilutions were: 1:1,000 for Notch1 (Santa Cruz Biotechnology, Santa Cruz, Calif.), mammalian achaete-scute homolog 1 (ASCL1; BD Biosciences, San Diego, Calif.), chromogranin A (Zymed Laboratories, San Francisco, Calif.), and cyclin D1 (Cell Signaling Technology, Danvers, Mass.), 1:2,000 for p21 (Cell Signaling Technology) and p27 (Santa Cruz Biotechnology), and 1:10,000 for glyceraldehyde-3-phosphate dehydrogenase (G3PDH; Trevigen, Gaithersburg, Md.). Horseradish peroxidase conjugated goat anti-rabbit or goat anti-mouse secondary antibodies (Pierce Biotechnology) were used depending on the source of the primary antibody. For visualization of the protein signal, Immunstar (Bio-Rad Laboratories, Hercules, Calif.) or SuperSignal West Femto (Pierce Biotechnology) kits were used per the manufacturer's instructions.

[2] = test system: BON human GI carcinoid cancer cells; experiment: MTT cell proliferation assay, GI carcinoid cells; assay type: cell-based
Excerpt: Cell Culture BON human GI carcinoid cancer cells, kindly provided by Drs. B. Mark Evers and Courtney M. Townsend, Jr. (University of Texas Medical Branch, Galveston, Tex., USA), and H727 human lung carcinoid cancer cells (American Type Tissue Collection, Manassas, Va., USA) were maintained as previously described (Sippel, R S et al., Raf-1 Activation Suppresses neuroendocrine marker and hormone levels in human gastrointestinal carcinoid cells. Am J Physiol Gastrointest Liver Physiol. 2003 August; 285(2):G245-54, Van Gompel J J et al., ZM336372, A Raf-1 Activator, Suppresses Growth and Neuroendocrine Hormone Levels in Carcinoid Tumor Cells. Mol Cancer Ther. 2005 June; 4(6):910-7)
Cell Proliferation Assay Carcinoid cancer cell proliferation was measured by the MTT (thiazolyl blue tetrazolium bromide; Sigma-Aldrich, St. Louis, Mo., USA) rapid calorimetric assay as previously described (Van Gompel J J et al., ZM336372, A Raf-1 Activator, Suppresses Growth and Neuroendocrine Hormone Levels in Carcinoid Tumor Cells. Mol Cancer Ther. 2005 June; 4(6):910-7). Briefly, cells were seeded in quadruplicate on 24-well plates and incubated for 24 hours to allow cell attachment. The cells were then treated with SBHA (Sigma-Aldrich) in concentrations of 0 to 50 μM and incubated for up to 6 days. The MTT assay was performed by replacing the standard medium with 250 μL of serum-free medium containing MTT (0.5 mg/mL) and incubated at 37° C. for 3 hours. After incubation, 750 μL of dimethyl sulfoxide (Sigma-Aldrich) was added to each well and mixed thoroughly. The plates were then measured at 540 nm using a spectrophotometer (μQuant; Bio-Tek Instruments, Winooski, Vt., USA).
Cell Culture BON human gastrointestinal (GI) carcinoid tumor cells, kindly provided by Drs. B. Mark Evers and Courtney M. Townsend, Jr. […]
Cell Proliferation Assay Carcinoid tumor cell proliferation was measured by the MTT (methylthiazolyldiphenyl-tetrazolium bromide; Sigma-Aldrich, St. Louis, Mo.) rapid colorimetric assay as previously described (Van Gompel J J et al., ZM336372, A Raf-1 Activator, Suppresses Growth and Neuroendocrine Hormone Levels in Carcinoid Tumor Cells. Mol Cancer Ther 2005; 4:910-917). […] The plates were then measured at 540 nm using a spectrophotometer (μQuant; Bio-Tek Instruments, Winooski, Vt.).

## CCCC(CCC)C(=O)O [VPA, 2-propylpentanoic acid]
[1]; VPA
  ASCL1 protein: dose-dependent decrease
[1]; VPA 0-4 mM, 2 days
  full-length Notch1 and NICD: increase
[1]; VPA 1 mM
  protein levels of p21 and p27: increase in protein levels
[1]; VPA 4 mM, 4 days
  cyclin D1 level: almost undetectable
[1]; VPA, two days
  protein levels of CgA: decreased
[2]; Homo sapiens, 144 h, 1 mM, 6 days of treatment, read-out: growth inhibition relative to untreated cells
  inhibition at 1000 µM: 50%
[2]; VPA 0 to 4 mM, up to 6 days
  cell growth: profound dose-dependent inhibition of growth
